Test results published in the CheMixHub ionic liquid set.

Assay: xn = mol fraction of the nth substance listed

CC[n+]1ccn(C)c1.O=C([O-])C(F)(F)F + OCC(O)CO
100 kPa
Conditions	electrical conductivity, 298.15 K [S/m]	electrical conductivity, 313.15 K [S/m]	viscosity, 293.15 K [mPa·s]	viscosity, 298.15 K [mPa·s]	viscosity, 303.15 K [mPa·s]	viscosity, 313.15 K [mPa·s]
x1 = 0.002	0.000383	0.0012	1382	893	592	280.8
x1 = 0.004	0.00069	0.00217	–	–	–	–
x1 = 0.013	0.00211	0.0066	1264	818	544	259.8
x2 = 0.202	0.81	1.37	47	38.2	31.3	22
x2 = 0.3	0.71	1.23	58	46.3	37.5	25.7
x2 = 0.399	0.57	1.02	65.5	51.5	41.1	27.5
x2 = 0.5	0.436	0.84	86	66.1	51.7	33.4
x2 = 0.6	0.305	0.63	115.9	86.6	66.1	40.8
x2 = 0.7	0.184	0.411	177.8	128.2	94.6	55
x2 = 0.8	0.08	0.199	316	218.7	155.2	84.1
x2 = 0.9	0.023	0.065	639	427	291.2	146.8
x2 = 0.956	0.0076	0.0231	983	643	432	210
x2 = 0.979	0.00328	0.0103	1188	772	514	246.5

F[B-](F)(F)F.[Li+] + CCCC[n+]1ccn(C)c1.N#C[N-]C#N
electrical conductivity [S/m], 101 kPa
Conditions	x2 = 0.8903	x2 = 0.9069	x2 = 0.933	x2 = 0.9549	x2 = 0.9799
288.15 K	–	0.426	0.514	0.543	0.622
298.15 K	0.595	0.679	0.8	0.842	0.972
333.15 K	1.89	2.07	2.31	2.41	2.7

CCCCCC[n+]1ccn(C)c1.F[B-](F)(F)F + CC(C)(C)O
298.15 K, 101 kPa
Conditions	viscosity [mPa·s]
x2 = 0.3074	69.2
x2 = 0.8007	13.92

COP(=O)([O-])OC.Cn1cc[n+](C)c1 + CCCO + O
100 kPa
Conditions	viscosity [mPa·s]
298.15 K, x2 = 0.249, x3 = 0.2451	90
323.15 K, x2 = 0.15, x3 = 0.1498	81
333.15 K, x2 = 0.1, x3 = 0.0998	85

c1ccncc1 + CCCC[n+]1ccn(C)c1.F[B-](F)(F)F
298.15 K, 101 kPa
Conditions	electrical conductivity [S/m]	viscosity [mPa·s]
x1 = 0.1059	0.264	82
x1 = 0.2	0.347	58
x1 = 0.3028	0.456	39.2
x1 = 0.3969	0.601	26.4
x1 = 0.5033	0.792	16.4
x1 = 0.6063	1.01	9.9
x1 = 0.6873	1.17	6.39
x1 = 0.807	1.3	3.2

CC(C)[C@H](N)C(=O)O + CCCCCCCCCCCCCC[n+]1ccccc1.O=C([O-])C(O)c1ccccc1 + O
Conditions	electrical conductivity [S/m]
313.15 K, 101 kPa, x2 = 0, x1 = 0.001799	0.00161

CCCCCCCCCCCCCC[P+](CCCCCC)(CCCCCC)CCCCCC.c1nnn[n-]1 + CCCCCC[n+]1ccn(C)c1.O=S(=O)([N-]S(=O)(=O)C(F)(F)F)C(F)(F)F
100 kPa
Conditions	viscosity [mPa·s]
283.15 K, x2 = 0.102	1711
283.15 K, x2 = 0.299	1361
283.15 K, x2 = 0.6	662
283.15 K, x2 = 0.8	342
288.15 K, x2 = 0.102	1155
288.15 K, x2 = 0.201	1055
288.15 K, x2 = 0.8	247
288.15 K, x2 = 0.9	158
298.15 K, x2 = 0.102	567
298.15 K, x2 = 0.6	245
303.15 K, x2 = 0.201	382
303.15 K, x2 = 0.701	145
308.15 K, x2 = 0.201	286
308.15 K, x2 = 0.299	253
308.15 K, x2 = 0.8	86
308.15 K, x2 = 0.9	59
313.15 K, x2 = 0.6	112
318.15 K, x2 = 0.349	141

CC(C)C[C@H](N)C(=O)O + CCCCCCCCCCCC[N+](C)(C)Cc1ccccc1.[Cl-] + O
101 kPa, x1 = 0.00893, x2 = 0
Conditions	electrical conductivity [S/m]
293.15 K	0.00107
298.15 K	0.00125
303.15 K	0.00136
308.15 K	0.00152
313.15 K	0.00168

COP(=O)([O-])OC.Cn1cc[n+](C)c1 + CC(C)O + O
100 kPa
Conditions	viscosity [mPa·s]
298.15 K, x2 = 0.248, x3 = 0.2507	83
303.15 K, x2 = 0.2, x3 = 0.1998	87
313.15 K, x2 = 0.148, x3 = 0.1518	81
323.15 K, x2 = 0.1, x3 = 0.0988	80
333.15 K, x2 = 0.044, x3 = 0.043	92

C[S+](C)C.O=S(=O)([N-]S(=O)(=O)C(F)(F)F)C(F)(F)F + N#CCCCC#N
101 kPa, x1 = 0.2085
Conditions	viscosity [mPa·s]
278 K	21.84
303 K	9.44
318 K	6.433
328 K	5.159
333 K	4.664
338 K	4.238
348 K	3.558

CCCCCCCC[P+](CC)(CC)CC.O=[N+]([O-])c1cn[n-]c1 + COCCOCCOCCOCCOC
100 kPa
Conditions	viscosity [mPa·s]
278.15 K, x2 = 0.503	78
283.15 K, x2 = 0	868
283.15 K, x2 = 0.404	97
288.15 K, x2 = 0	578
288.15 K, x2 = 0.102	327
303.15 K, x2 = 0.051	170
308.15 K, x2 = 0.199	69
313.15 K, x2 = 0.199	55
318.15 K, x2 = 0	94

CCCCCCCCCCCC[N+]1(C)CCCC1.O=C([O-])c1ccccc1O + O
100 kPa
Conditions	electrical conductivity [S/m]
298.15 K, x1 = 3.592e-05	0.00892
298.15 K, x1 = 3.961e-05	0.00933
298.15 K, x1 = 4.883e-05	0.0111
308.15 K, x1 = 4.883e-05	0.0151
318.15 K, x1 = 3.592e-05	0.0144
318.15 K, x1 = 5.39e-05	0.02
318.15 K, x1 = 5.759e-05	0.0215
328.15 K, x1 = 5.39e-05	0.0254
328.15 K, x1 = 5.759e-05	0.0262

CCCCCC[n+]1ccn(C)c1.F[B-](F)(F)F + CCCN
Conditions	viscosity [mPa·s]
298.15 K, 101 kPa, x2 = 0	171.8

CCCCCC[n+]1ccn(C)c1.F[B-](F)(F)F + CC[n+]1ccn(C)c1.F[B-](F)(F)F
101 kPa
Conditions	viscosity [mPa·s]
298.15 K, x2 = 0	211
298.15 K, x2 = 0.4061	111.8
298.15 K, x2 = 0.793	53.76
299.15 K, x2 = 0	198.1
299.15 K, x2 = 0.1196	162.2
299.15 K, x2 = 0.1803	148.6
299.15 K, x2 = 0.3145	121.9
299.15 K, x2 = 0.4938	91.2
299.15 K, x2 = 0.6006	74.7
299.15 K, x2 = 0.793	51.53
299.15 K, x2 = 0.9022	41.62
301.15 K, x2 = 0.0545	155.3
301.15 K, x2 = 0.1803	132.9
301.15 K, x2 = 0.8516	42.79
301.15 K, x2 = 0.9022	38.54
302.15 K, x2 = 0	167.2
302.15 K, x2 = 0.1196	137.4
302.15 K, x2 = 0.8516	41.13
302.15 K, x2 = 0.9022	37.08
303.15 K, x2 = 0.5526	68.4
303.15 K, x2 = 0.6006	62.29
303.15 K, x2 = 0.7059	51.99
303.15 K, x2 = 0.793	43.73
304.15 K, x2 = 0.7059	49.86
304.15 K, x2 = 0.9022	34.46
305.15 K, x2 = 0.3145	89.6
305.15 K, x2 = 0.4938	68.4
305.15 K, x2 = 0.6006	57.12
305.15 K, x2 = 0.793	40.44
305.15 K, x2 = 0.9022	33.23
307.15 K, x2 = 0.793	37.44
307.15 K, x2 = 0.9022	30.96
308.15 K, x2 = 0.3145	77.6
308.15 K, x2 = 0.4938	59.86
308.15 K, x2 = 0.6006	50.38
308.15 K, x2 = 0.793	36.05
308.15 K, x2 = 0.9022	29.94
